Data from patent publication US20230312587A1, “PTERIDINONE COMPOUNDS AND USES THEREOF” (Vertex Pharmaceutical Incorporated, priority 2018, published 2023).

Tested on: β-catenin-TCF-mediated reporter transcription activity in Colo 205 cells
Assay: Colo 205 reporter assay (TCF/LEF luciferase)
Assay type: cell-based
Settings: Colo 205 TCF/LEF luciferase reporter, five hours after addition of compound; read-out: TCF reporter Colo205 IC50
Text: The compounds of the invention described herein were screened using the assay procedure for β-catenin-TCF-mediated reporter transcription activity described below.
Reporter cell lines were generated by stably transfecting cells of cancer cell lines (e.g., colon cancer) with a plasmid reporter construct (From SABiosciences, a QIAGEN company) that includes TCF/LEF promoter driving expression of the firefly luciferase gene. TCF/LEF reporter constructs were made in which TCF/LEF promoter, a promoter with optimal number of TCF/LEF binding sites designed by SABiosceinces, was linked upstream of the firefly luciferase gene. This construct could also include a puromycin resistance gene as a selectable marker. This construct could also be used to stably transfect Colo 205 cells, a colon cancer cell line having a mutated APC gene that causes a constitutively active β-catenin. A control cell line was generated using another plasmid construct containing the luciferase gene under the control of a CMV basal promoter which is not activated by p-catenin.
Colo 205 Cultured cells with a stably transfected reporter construct were plated at approximately 10,000 cells per well into 384 well multi-well plates for twenty four hours. The testing compounds were then added to the wells in 2-fold serial dilutions using a twenty micromolar top concentration. A series of control wells for each cell type received only compound solvent. Five hours after the addition of compound, reporter activity for luciferase was assayed, by addition of the SteadyGlo luminescence reagent (Promega). The reporter luminescence activity was measured using Pherastar plate reader (BMG Labtech). Readings were normalized to DMSO only treated cells, and normalized activities were then used in the IC50 calculations. The Colo 205 reporter assay data are summarized in Table 45: A<0.3 μM; 0.3 μM≤B<1.0 μM; 1.0 μM≤C<5.0 μM; D≥5.0 μM
Colo 205 reporter assay data has also been obtained for certain R-isomers of Formula (I) wherein R^4 is —H or -D, and wherein the carbon to which R^3 and R^4 are attached (C2 carbon of Formula (X)) has R stereochemistry; such epimeric compounds are represented using the suffix “B” attached to the Compound described herein having the S stereochemistry at the carbon to which R^3 and R^4 are attached: […]

Row | IC50 | SMILES
1 | < 0.3 µM | Cc1nc(N[C@H]2CO[C@H](COc3cc(F)c(F)c(F)c3)C2)nc2c1NC(=O)[C@H](C)N2C [Compound 301, (7S)-4,7,8-trimethyl-2-(((3R,5S)-5-((3,4,5-trifluorophenoxy)methyl)tetrahydrofuran-3-yl)amino)-7,8-dihydropteridin-6(5H)-one]
2 | 0.3 to 1 µM | COCC1(C)C(=O)Nc2c(C)nc(N[C@H]3C[C@H](Oc4cnc(C(F)(F)F)nc4)C3)nc2N1C (relative stereo) [Compound 706, 7-(methoxymethyl)-4,7,8-trimethyl-2-((trans-3-((2-(trifluoromethyl)pyrimidin-5-yl)oxy)cyclobutyl)amino)-7,8-dihydropteridin-6(5H)-one]

Same assay, conditions: Homo sapiens, 5 h; Colo 205 TCF/LEF luciferase reporter, five hours after addition of compound; read-out: TCF reporter Colo205 IC50

Row | SMILES | IC50
3 | Cc1nc(N[C@H]2C[C@@H](NC(=O)Oc3cc(F)c(F)c(F)c3)C2)nc2c1NC(=O)[C@H](C)N2C [Compound 484, 3,4,5-trifluorophenyl (cis-3-(((S)-4,7,8-trimethyl-6-oxo-5,6,7,8-tetrahydropteridin-2-yl)amino)cyclobutyl)carbamate] | 1 to 5 µM

Same assay, conditions: Homo sapiens, COLO 205, 5 h, Colo 205 TCF/LEF luciferase reporter, five hours after addition of compound; read-out: TCF reporter Colo205 IC50

Row | SMILES | IC50
4 | Cc1nc(N[C@H]2C[C@H](Nc3nccc(C(F)(F)F)n3)C2)nc2c1NC(=O)[C@H](C(C)C)N2C [Compound 529, (S)-7-isopropyl-4,8-dimethyl-2-((trans-3-((4-(trifluoromethyl)pyrimidin-2-yl)amino)cyclobutyl)amino)-7,8-dihydropteridin-6(5H)-one] | 1 to 5 µM
5 | Cc1nc(NCc2cnn(Cc3ccc(C(F)(F)F)nc3)c2)nc2c1NC(=O)[C@H]([C@H](C)OC(C)(C)C)N2C [Compound 742, (S)-7-((S)-1-(tert-butoxy)ethyl)-4,8-dimethyl-2-(((1-((6-(trifluoromethyl)pyridin-3-yl)methyl)-1H-pyrazol-4-yl)methyl)amino)-7,8-dihydropteridin-6(5H)-one] | 1 to 5 µM
6 | Cc1nc(N[C@H]2C[C@H](N(C)c3cnc(C(F)(F)F)cn3)C2)nc2c1NC(=O)[C@H](C)N2C [Compound 683, (S)-4,7,8-trimethyl-2-((trans-3-(methyl(5-(trifluoromethyl)pyrazin-2-yl)amino)cyclobutyl)amino)-7,8-dihydropteridin-6(5H)-one] | 0.3 to 1 µM
7 | Cc1nc(N[C@H]2C[C@@H](Oc3ccc(F)cc3)C2)nc2c1NC(=O)[C@H](C)N2C [Compound 243, (7S)-2-((cis-3-(4-fluorophenoxy)cyclobutyl)amino)-4,7,8-trimethyl-7,8-dihydropteridin-6(5H)-one] | 1 to 5 µM
8 | Cc1nc(NCc2cc(C)n(-c3ccc(C(F)(F)F)cc3)c2C)nc2c1NC(=O)[C@H](C(C)C)N2C [Compound 453, (S)-2-(((2,5-dimethyl-1-(4-(trifluoromethyl)phenyl)-1H-pyrrol-3-yl)methyl)amino)-7-isopropyl-4,8-dimethyl-7,8-dihydropteridin-6(5H)-one] | < 0.3 µM
9 | CO[C@H](C)[C@H]1C(=O)Nc2c(C)nc(N[C@H]3C[C@H](N(C)c4cnc(C(F)(F)F)cn4)C3)nc2N1C [Compound 681, (S)-7-((R)-1-methoxyethyl)-4,8-dimethyl-2-((trans-3-(methyl(5-(trifluoromethyl)pyrazin-2-yl)amino)cyclobutyl)amino)-7,8-dihydropteridin-6(5H)-one] | 0.3 to 1 µM
10 | Cc1nc(NCc2cnn(Cc3ncc(F)cn3)c2)nc2c1NC(=O)[C@H](C)N2C [Compound 162, (7S)-2-(((1-((5-fluoropyrimidin-2-yl)methyl)-1H-pyrazol-4-yl)methyl)amino)-4,7,8-trimethyl-7,8-dihydropteridin-6(5H)-one] | ≥ 5 µM
11 | Cc1cc(OC(C)(C)C)ncc1Cn1cc(CNc2nc(C)c3c(n2)N(C)[C@@H](C)C(=O)N3)cn1 [Compound 167, (7S)-2-(((1-((6-(tert-butoxy)-4-methylpyridin-3-yl)methyl)-1H-pyrazol-4-yl)methyl)amino)-4,7,8-trimethyl-7,8-dihydropteridin-6(5H)-one] | < 0.3 µM
12 | Cc1nn(Cc2ccc(C(F)(F)F)nc2)c(C)c1CNc1nc(C)c2c(n1)N(C)[C@@H](C)C(=O)N2 [Compound 212, (7S)-2-(((3,5-Dimethyl-1-((6-(trifluoromethyl)pyridin-3-yl)methyl)-1H-pyrazol-4-yl)methyl)amino)-4,7,8-trimethyl-7,8-dihydropteridin-6(5H)-one] | ≥ 5 µM

Now from value to compound:

Row | IC50 | SMILES
13 | 0.3 to 1 µM | C[C@H]1C(=O)N(C)c2cnc(NCc3cnn(Cc4ccc(F)cc4)c3)nc2N1C [Compound 27, (7S)-2-(((1-(4-fluorobenzyl)-1H-pyrazol-4-yl)methyl)amino)-5,7,8-trimethyl-7,8-dihydropteridin-6(5H)-one]
14 | 0.3 to 1 µM | Cc1nc(N[C@H]2C[C@@H](Nc3ccnc(C(F)(F)F)n3)C2)nc2c1NC(=O)[C@H](C(C)C)N2C [Compound 539, (S)-7-isopropyl-4,8-dimethyl-2-((cis-3-((2-(trifluoromethyl)pyrimidin-4-yl)amino)cyclobutyl)amino)-7,8-dihydropteridin-6(5H)-one]
15 | 0.3 to 1 µM | Cc1nc(NCc2cnn(Cc3ccc(N(C)C)nc3)c2)nc2c1NC(=O)[C@H](C)N2C [Compound 196, (7S)-2-(((1-((6-(dimethylamino)pyridin-3-yl)methyl)-1H-pyrazol-4-yl)methyl)amino)-4,7,8-trimethyl-7,8-dihydropteridin-6(5H)-one]
16 | < 0.3 µM | Cc1nc(NC2CN(C(=O)Cc3cc(F)c(F)c(F)c3)C2)nc2c1NC(=O)[C@H](C(C)C)N2C [Compound 544, (S)-7-isopropyl-4,8-dimethyl-2-((1-(2-(3,4,5-trifluorophenyl)acetyl)azetidin-3-yl)amino)-7,8-dihydropteridin-6(5H)-one]
17 | 1 to 5 µM | Cc1nc(N[C@@H]2CC[C@H](Nc3cnc(C(F)(F)F)cn3)C2)nc2c1NC(=O)[C@H](C)N2C [Compound 737, (S)-4,7,8-trimethyl-2-(((1R,3S)-3-((5-(trifluoromethyl)pyrazin-2-yl)amino)cyclopentyl)amino)-7,8-dihydropteridin-6(5H)-one]
18 | < 0.3 µM | Cc1nc(N[C@H]2C[C@@H](COc3cc(F)c(F)cc3F)C2)nc2c1NC(=O)[C@H](C)N2C [Compound 285, (7S)-4,7,8-trimethyl-2-((cis-3-((2,4,5-trifluorophenoxy)methyl)cyclobutyl)-amino)-7,8-dihydropteridin-6(5H)-one]
19 | 0.3 to 1 µM | Cc1nc(Cn2cc(CNc3nc(C)c4c(n3)N(C)[C@@H](C)C(=O)N4)cn2)c(C)o1 [Compound 193, (7S)-2-(((1-((2,5-dimethyloxazol-4-yl)methyl)-1H-pyrazol-4-yl)methyl)amino)-4,7,8-trimethyl-7,8-dihydropteridin-6(5H)-one]
20 | 1 to 5 µM | Cc1nc(N[C@H]2C[C@H](NC(=O)Nc3cc(F)c(F)cc3F)C2)nc2c1NC(=O)[C@H](C)N2C [Compound 478, 1-(2,4,5-trifluorophenyl)-3-(trans-3-(((S)-4,7,8-trimethyl-6-oxo-5,6,7,8-tetrahydropteridin-2-yl)amino)cyclobutyl)urea]
21 | ≥ 5 µM | Cc1nc(NCc2cnn(Cc3ccnc(C#N)c3)c2)nc2c1NC(=O)[C@H](C)N2C [Compound 204, (7S)-4-((4-(((4,7,8-trimethyl-6-oxo-5,6,7,8-tetrahydropteridin-2-yl)amino)methyl)-1H-pyrazol-1-yl)methyl)picolinonitrile]
22 | < 0.3 µM | Cc1nc(NC2CN(Cc3ccc(C(F)(F)F)nc3)C2)nc2c1NC(=O)[C@H](C(C)C)N2C [Compound 649, (S)-7-isopropyl-4,8-dimethyl-2-((1-((6-(trifluoromethyl)pyridin-3-yl)methyl)azetidin-3-yl)amino)-7,8-dihydropteridin-6(5H)-one]
23 | 0.3 to 1 µM | Cc1nc(N[C@H]2C[C@@H](COc3cncc(F)c3)C2)nc2c1NC(=O)[C@H](C)N2C [Compound 263, (7S)-2-((cis-3-(((5-fluoropyridin-3-yl)oxy)methyl)cyclobutyl)amino)-4,7,8-trimethyl-7,8-dihydropteridin-6(5H)-one]
24 | 1 to 5 µM | Cc1nc(NC2CN(C(=O)C3CC4CCC3C4)C2)nc2c1NC(=O)[C@H](C(C)C)N2C (stereo partly drawn) [Compound 639, (7S)-2-((1-(bicyclo[2.2.1]heptane-2-carbonyl)azetidin-3-yl)amino)-7-isopropyl-4,8-dimethyl-7,8-dihydropteridin-6(5H)-one]
25 | < 0.3 µM | COc1c(F)cc(O[C@H]2C[C@H](Nc3nc(C)c4c(n3)N(C)[C@@H](C)C(=O)N4)C2)cc1F [Compound 287, (7S)-2-((trans-3-(3,5-difluoro-4-methoxyphenoxy)cyclobutyl)amino)-4,7,8-trimethyl-7,8-dihydropteridin-6(5H)-one]
26 | 0.3 to 1 µM | Cc1nc(N[C@H]2C[C@H](Oc3ccc(OC(F)(F)F)cc3)C2)nc2c1N(C)C(=O)[C@H](C)N2C [Compound 325, (7S)-4,5,7,8-tetramethyl-2-((trans-3-(4-(trifluoromethoxy)phenoxy)-cyclobutyl)amino)-7,8-dihydropteridin-6(5H)-one]
